Experiment: Valia-Chien diffusion cell, trans-membrane diffusion of RhoB
Format: in vitro ADME
Text: A Valia-Chien cell apparatus separated by an artificial barrier membrane was used to compare the in vitro drug delivery kinetics of the small molecule Rhodamine B delivered via P407 and saline solution, both with and without perforations. The applied methods for measuring trans-membrane diffusion were adapted from the American Association of Pharmaceutical Scientists as well as the Federal Drug Administration recommendations for in vitro percutaneous absorption rate studies (EPA, Recommended Protocol For In Vitro Percutaneous Absorption Rate Studies, Federal Register Notices, 61(65):14773-14778, 1996. Agency Docket: OPPTS-42186A.)
P407 powder (Spectrum Chemical, Gardena, CA) was mixed with demineralized water and RhoB to create a 0.1 mM RhoB solution in 18% P407 by weight. The resulting mixture was stirred at room temperature and kept overnight in a refrigerator at 3 to 4° C. to facilitate dissolution of the P407 powder. At the chosen P407 concentration, the mixture transitioned into gel upon placement within the room-temperature testing apparatus.
Diffusion of RhoB through an artificial membrane barrier was performed using 9 mm clear unjacketed Valia-Chien diffusion cells (PermeGear Inc., Hellertown, PA) with 5 mL volumes and flat-ground joints. […] The Valia-Chien diffusion cells 800 were arranged horizontally, mitigating the effects of gravity on particle movement and allowing for active stirring of both the donor 810 and receptor compartments 820 by magnetic mini-stirrers 840 (HI 190M-1, Hanna Instruments, Woonsocket, RI). A 3D-printed adapter 850 was used as a conduit between the chambers 810, 820.
The donor chamber 810 was filled with 5.0 mL volumes of: (A) 0.1 mM RhoB in PBS or (B) 0.1 mM RhoB in 18% P407. An additional sample of donor solution was reserved for the calibration of fluorescence detection, as detailed below. Active stirring of the donor chamber 810 was performed for experiments utilizing PBS, but not those utilizing gelified P407. Initial filling of the donor chamber marked time zero for each experiment.
The receptor chamber 820 was filled with 5.0 mL of PBS prepared by dissolving 9.6 g of Dulbecco's Phosphate Buffered Saline powder (Sigma-Aldrich) in 1.0 L deionized water. An Eppendorf micropipette was used to withdraw 75 μL of fluid from the receptor chamber every 15 minutes, from 0 min to 165 min, for a total of 12 samples. The collected samples were placed in individual wells of a 96-well plate for further analysis. The withdrawn solution was replaced with 75 μL of PBS to prevent advection of fluid within the system. […] Active stirring of the receptor chamber 820 was performed for all experiments.
Whatman™ Grade 2 Qualitative Filter Paper with diameter 5.5 cm, thickness 190 μm and pore size 8.0 μm (Whatman Limited, England) was used as an artificial membrane 830 barrier separating the donor and receptor chambers. […] Using an artificial barrier controlled for pore size as well as membrane thickness. The filter paper was cut to fit a custom 3D-printed diffusion cell adapter, which was circumferentially sealed with general-purpose epoxy. Teflon tape was used to prevent leakage between the 3D-printed adapter and the joint, which were secured with a standard Valia-Chien cell clamp. The filter paper was equilibrated in PBS solution for 30 min prior to any contact with donor substance. […]

CCN(CC)c1ccc2c(-c3ccccc3C(=O)O)c3ccc(=[N+](CC)CC)cc-3oc2c1.[Cl-] [RhoB, Rhodamine B]
permeance (RhoB in P407, membrane with one 200 μm perforation): 3.0×10^−7 m s^−1
permeance (RhoB in P407, unperforated artificial membrane): 2.2×10^−7 m s^−1
permeance (RhoB in PBS, unperforated artificial membrane): 3.04×10^−6 m s^−1
diffusion rate in P407 relative to saline (times lower) (after the initial burst release): more than 10 times
increase in measured permeance (saline as solvent, membranes with up to four 100 μm perforations vs unperforated): 1.5 fold
